Assay results: patent US10428051B2 (priority 2015, dated 2019)
Read-outs that look alike come from different tables or passages of the source.

Molecular target: human σ1 receptor (Homo sapiens, UniProt Q99720)
Assay: biochemical
Assay type: binding
Design: μ and σ1 dual (binding to the σ1 receptor and the μ-opioid receptor expressed as Ki): key to the marks not given beside the values
[1] = combined class for both Ki-σ1 (assay A1) and Ki-μ (assay A2), human receptors, radioligand binding, read-out: μ and σ1 dual (binding to the σ1 receptor and the μ-opioid receptor expressed as Ki)

human σ1 receptor, sequence (Q99720 whole entry): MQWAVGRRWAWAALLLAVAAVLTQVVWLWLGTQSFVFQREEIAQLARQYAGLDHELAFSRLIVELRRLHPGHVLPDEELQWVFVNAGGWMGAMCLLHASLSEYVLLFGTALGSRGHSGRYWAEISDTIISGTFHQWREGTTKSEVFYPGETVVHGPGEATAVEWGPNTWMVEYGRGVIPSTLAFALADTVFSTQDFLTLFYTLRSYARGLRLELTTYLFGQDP

SMILES | Ki [nM] | μ and σ1 dual (binding to the σ1 receptor and the μ-opioid receptor expressed as Ki) | further results
CCC(=O)N(CC1(N2CCN(Cc3ccccc3)CC2)CCOCC1)c1ccccc1Cl [Example 2, N-((4-(4-benzylpiperazin-1-yl)tetrahydro-2H-pyran-4-yl)methyl)-N-(2-chlorophenyl)propionamide] | < 100 |  | 
CCC(=O)N(CC1(N2CCN(Cc3ccccc3)CC2)CCOCC1)c1ccccc1OC [Example 3, N-((4-(4-benzylpiperazin-1-yl)tetrahydro-2H-pyran-4-yl)methyl)-N-(2-methoxyphenyl)propionamide] | < 100 |  | 
CCC(=O)N(CC1(N2CCN(Cc3ccccc3)CC2)CCOCC1)c1ccccc1F [Example 4, N-((4-(4-benzylpiperazin-1-yl)tetrahydro-2H-pyran-4-yl)methyl)-N-(2-fluorophenyl)propionamide] | < 100 |  | 
CCC(=O)N(CC1(N2CCN(Cc3ccccc3)CC2)CCOCC1)c1cccc(F)c1 [Example 5, N-((4-(4-benzylpiperazin-1-yl)tetrahydro-2H-pyran-4-yl)methyl)-N-(3-fluorophenyl)propionamide] | < 100 |  | 
CCC(=O)N(CC1(N2CCN(Cc3ccccc3)CC2)CCOCC1)c1ccc(F)cn1 [Example 6, N-((4-(4-benzylpiperazin-1-yl)tetrahydro-2H-pyran-4-yl)methyl)-N-(5-fluoropyridin-2-yl)propionamide] | < 500 |  | 
CCC(=O)N(CC1(N2CCN(Cc3ccccc3)CC2)CCOCC1)c1ccc(C(F)(F)F)cn1 [Example 7, N-((4-(4-benzylpiperazin-1-yl)tetrahydro-2H-pyran-4-yl)methyl)-N-(5-(trifluoromethyl)pyridin-2-yl)propionamide] |  | ++ | 
CCC(=O)N(CC1(N2CCN(Cc3ccccc3)CC2)CCOCC1)c1cc(C(F)(F)F)ccn1 [Example 8, N-((4-(4-benzylpiperazin-1-yl)tetrahydro-2H-pyran-4-yl)methyl)-N-(4-(trifluoromethyl)pyridin-2-yl)propionamide] | < 500 |  | 
CCC(=O)N(CC1(N2CCN(Cc3ccccc3)CC2)CCOCC1)c1cncc(C(F)(F)F)c1 [Example 9, N-((4-(4-benzylpiperazin-1-yl)tetrahydro-2H-pyran-4-yl)methyl)-N-(5-(trifluoromethyl)pyridin-3-yl)propionamide] |  | ++ | 
CCC(=O)N(CC1(N2CCN(Cc3ccccc3)CC2)CCOCC1)c1cncc(F)c1 [Example 10, N-((4-(4-benzylpiperazin-1-yl)tetrahydro-2H-pyran-4-yl)methyl)-N-(5-fluoropyridin-3-yl)propionamide] | < 500 |  | 
CCC(=O)N(CC1(N2CCN(Cc3ccccc3)CC2)CCOCC1)c1ccc(C(F)(F)F)nc1 [Example 11, N-((4-(4-benzylpiperazin-1-yl)tetrahydro-2H-pyran-4-yl)methyl)-N-(6-(trifluoromethyl)pyridin-3-yl)propionamide] |  | ++ | 
CCC(=O)N(CC1(N2CCN(Cc3ccccc3)CC2)CCOCC1)c1ccncc1 [Example 12, N-((4-(4-benzylpiperazin-1-yl)tetrahydro-2H-pyran-4-yl)methyl)-N-(pyridin-4-yl)propionamide] | > 500 |  | 
CCC(=O)N(CC1(N2CCN(Cc3ccccc3)CC2)CCOCC1)C(C)c1ccccc1 (stereo not drawn) [Example 13, N-((4-(4-benzylpiperazin-1-yl)tetrahydro-2H-pyran-4-yl)methyl)-N-(1-phenylethyl)propionamide] | < 100 |  | 
CCC(=O)N(Cc1ccccc1)CC1(N2CCN(Cc3ccccc3)CC2)CCOCC1 [Example 14, N-benzyl-N-((4-(4-benzylpiperazin-1-yl)tetrahydro-2H-pyran-4-yl)methyl)propionamide] |  | ++ | 
CCC(=O)N(CC(C)C)CC1(N2CCN(Cc3ccccc3)CC2)CCOCC1 [Example 15, N-((4-(4-benzylpiperazin-1-yl)tetrahydro-2H-pyran-4-yl)methyl)-N-isobutylpropionamide] |  | ++ | 
CCC(=O)N(CC1(N2CCN(Cc3ccccc3)CC2)CCOC(C)(C)C1)c1ccccn1 (stereo not drawn) [Example 16, N-((4-(4-benzylpiperazin-1-yl)-2,2-dimethyltetrahydro-2H-pyran-4-yl)methyl)-N-(pyridin-2-yl)propionamide] | < 500 |  | 
CCC(=O)N(CC1(N2CCN(Cc3ccccc3)CC2)CCOC2(CCCC2)C1)c1ccccn1 (stereo not drawn) [Example 17, N-((9-(4-benzylpiperazin-1-yl)-6-oxaspiro[4.5]decan-9-yl)methyl)-N-(pyridin-2-yl)propionamide] | < 500 |  | 
CCC(=O)N(CC1(N2CCN(CCc3ccccc3)CC2)CCCCC1)c1ccccn1 [Example 21, N-((1-(4-phenethylpiperazin-1-yl)cyclohexyl)methyl)-N-(pyridin-2-yl)propionamide] | < 500 |  | 
CCOc1ccc(N(CC2(N3CCN(Cc4ccccc4)CC3)CCN(C)CC2)C(=O)CC)cc1 [Example 24, N-((4-(4-benzylpiperazin-1-yl)-1-methylpiperidin-4-yl)methyl)-N-(4-ethoxyphenyl)propionamide] |  |  | Ki [1]: > 500 nM

SMILES | Ki [nM] | μ and σ1 dual (binding to the σ1 receptor and the μ-opioid receptor expressed as Ki) | further results
CCC(=O)N(CC1(N2CCN(Cc3ccccc3)CC2)CC1)c1ccncc1 [Example 31, N-((1-(4-benzylpiperazin-1-yl)cyclopropyl)methyl)-N-(pyridin-4-yl)propionamide] |  | ++ | 
CCC(=O)N(CC1(N2CCN(Cc3ccccc3)CC2)CC1)c1ccc(F)cn1 [Example 33, N-((1-(4-benzylpiperazin-1-yl)cyclopropyl)methyl)-N-(5-fluoropyridin-2-yl)propionamide] | < 500 |  | 
CCC(=O)N(CC1(N2CCN(Cc3ccccc3)CC2)CC1)c1cccnc1 [Example 36, N-((1-(4-benzylpiperazin-1-yl)cyclopropyl)methyl)-N-(pyridin-3-yl)propionamide] | < 500 |  | 
COCC(=O)N(CC1(N2CCN(Cc3ccccc3)CC2)CCOCC1)c1ccccc1 [Example 37, N-((4-(4-benzylpiperazin-1-yl)tetrahydro-2H-pyran-4-yl)methyl)-2-methoxy-N-phenylacetamide] | < 500 |  | 
O=C(c1cccs1)N(CC1(N2CCN(Cc3ccccc3)CC2)CCOCC1)c1ccccn1 [Example 38, N-((4-(4-benzylpiperazin-1-yl)tetrahydro-2H-pyran-4-yl)methyl)-N-(pyridin-2-yl)thiophene-2-carboxamide] |  | ++ | 
COCC(=O)N(CC1(N2CCN(CC(C)C)CC2)CCOCC1)c1cccc(C(F)(F)F)n1 [Example 39, N-((4-(4-isobutylpiperazin-1-yl)tetrahydro-2H-pyran-4-yl)methyl)-2-methoxy-N-(6-(trifluoromethyl)pyridin-2-yl)acetamide] |  | ++ | 
CC(=O)N(CC1(N2CCN(CC(C)C)CC2)CCOCC1)c1cccc(C(F)(F)F)n1 [Example 40, N-((4-(4-isobutylpiperazin-1-yl)tetrahydro-2H-pyran-4-yl)methyl)-N-(6-(trifluoromethyl)pyridin-2-yl)acetamide] |  | ++ | 
CN1CCC(CN(C(=O)c2nccs2)c2ccccc2)(N2CCN(Cc3ccccc3)CC2)CC1 [Example 41, N-((4-(4-benzylpiperazin-1-yl)-1-methylpiperidin-4-yl)methyl)-N-phenylthiazole-2-carboxamide] |  |  | Ki [1]: > 500 nM
CC(C)(CN(C(=O)c1ccco1)c1ccccc1)N1CCN(CCc2ccccc2)CC1 [Example 44, N-(2-methyl-2-(4-phenethylpiperazin-1-yl)propyl)-N-phenylfuran-2-carboxamide] | < 100 |  | 
O=C(c1cccs1)N(CC1(N2CCN(Cc3ccccc3)CC2)CC1)c1ccccn1 [Example 47, N-((1-(4-benzylpiperazin-1-yl)cyclopropyl)methyl)-N-(pyridin-2-yl)thiophene-2-carboxamide] |  | ++ | 
CCNC(=O)N(CC(C)(C)N1CCN(Cc2ccccc2)CC1)c1ccccc1 [Example 48, 1-(2-(4-benzylpiperazin-1-yl)-2-methylpropyl)-3-ethyl-1-phenylurea] |  | ++ | 
CCNC(=O)N(CC1(N2CCN(Cc3ccccc3)CC2)CCOCC1)c1ccccn1 [Example 49, 1-((4-(4-benzylpiperazin-1-yl)tetrahydro-2H-pyran-4-yl)methyl)-3-ethyl-1-(pyridin-2-yl)urea] |  | ++ | 
CCNC(=O)N(CC1(N2CCN(CCc3ccccc3)CC2)CCCCC1)c1ccccc1 [Example 50, 3-ethyl-1-((1-(4-phenethylpiperazin-1-yl)cyclohexyl)methyl)-1-phenylurea] | < 500 |  | 
CCNC(=O)N(CC1(N2CCN(Cc3ccccc3)CC2)CC1)c1ccccc1 [Example 52, 1-((1-(4-benzylpiperazin-1-yl)cyclopropyl)methyl)-3-ethyl-1-phenylurea] | < 500 |  | 
CCC(=O)N(CC1(N2CCN(Cc3ccccc3)CC2)CCOCC1)c1ccccc1O [Example 54, N-((4-(4-benzylpiperazin-1-yl)tetrahydro-2H-pyran-4-yl)methyl)-N-(2-hydroxyphenyl)propionamide] | < 500 |  | 
CCC(=O)N(CC1(N2CCN(Cc3ccccc3)CC2)CCOCC1)c1ccccn1 [Example 56, N-((4-(4-benzylpiperazin-1-yl)tetrahydro-2H-pyran-4-yl)methyl)-N-(pyridin-2-yl)propionamide] | < 500 |  | 
CCC(=O)N(CC1(N2CCN(Cc3ccccc3)CC2)CCOCC1)c1cccc(C#N)c1 [Example 57, N-((4-(4-benzylpiperazin-1-yl)tetrahydro-2H-pyran-4-yl)methyl)-N-(3-cyanophenyl)propionamide] |  | ++ | 
CCC(=O)N(CC1(N2CCN(Cc3ccccc3)CC2)CCOCC1)c1ncccc1C#N [Example 58, N-((4-(4-benzylpiperazin-1-yl)tetrahydro-2H-pyran-4-yl)methyl)-N-(3-cyanopyridin-2-yl)propionamide] |  | ++ | 
